ChEMBL document CHEMBL5500389, “Discovery of the Selective and Orally Available Galectin-1 Inhibitor GB1908 as a Potential Treatment for Lung Cancer” (J Med Chem, 2024)
Each block holds one compound with its values, some of them ahead of it. The source made the active and inactive calls. No cut-off for these calls is given here.

Key:
[1] = Efflux ratio of apparent permeability across apical to basal side over basal to apical side in human Caco-2 cells at 10 uM incubated for 90 mins by LC-MS/MS analysis
[2] = Apparent permeability across apical to basal side in human Caco-2 cells at 10 uM incubated for 90 mins by LC-MS/MS analysis
[3] = Apparent permeability across basal to apical side in human Caco-2 cells at 10 uM incubated for 90 mins by LC-MS/MS analysis
physchem = details: octanol/potassium phosphate buffer, pH 7.4
Galectin-1 [4] = molecular target: T1, Galectin-1 (Homo sapiens, UniProt P09382); assay: Binding affinity to human galectin-1 assessed as dissociation constant by fluorescein probe based fluorescence polarization assay
T1 sequence (P09382 whole entry): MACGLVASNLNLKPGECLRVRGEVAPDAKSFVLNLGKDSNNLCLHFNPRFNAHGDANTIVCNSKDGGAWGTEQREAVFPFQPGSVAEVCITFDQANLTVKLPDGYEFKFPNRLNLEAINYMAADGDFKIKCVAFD

[5] = Stability in human hepatocytes assessed as hepatic intrinsic clearance at 2 uM measured per million cells for 15 to 120 mins by LC-MS/MS analysis; type: ADME, cell-based, Hepatocyte; details: time 15-120 min, read-out: CLH
[6] = Stability in mouse hepatocytes assessed as hepatic intrinsic clearance at 2 uM measured per million cells for 15 to 120 mins by LC-MS/MS analysis; type: ADME, cell-based, Hepatocyte; details: time 15-120 min, read-out: CLH
Galectin-1 [7] = molecular target: T2, Galectin-1 (Mus musculus, UniProt P16045); assay: Binding affinity to mouse galectin-1 assessed as dissociation constant by fluorescein probe based fluorescence polarization assay
T2 sequence (P16045 whole entry): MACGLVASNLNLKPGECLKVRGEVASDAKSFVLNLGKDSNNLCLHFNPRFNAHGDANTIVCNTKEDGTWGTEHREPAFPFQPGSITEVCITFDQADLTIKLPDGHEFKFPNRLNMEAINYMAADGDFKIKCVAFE

[8] = Unbound fraction in human plasma at 1 uM incubated for 5 hrs by equilibrium dialysis method; type: ADME, cell-free
Galectin-1 [9] = molecular target: T2, Galectin-1; assay: Binding affinity to CM3 chip-immobilized full-length mouse galectin-1 assessed as dissociation constant by SPR analysis
Galectin-3 [10] = molecular target: T3, Galectin-3 (Homo sapiens, UniProt P17931); assay: Binding affinity to CM3 chip-immobilized full-length human galectin-3 assessed as dissociation constant by SPR analysis
T3 sequence (P17931 whole entry): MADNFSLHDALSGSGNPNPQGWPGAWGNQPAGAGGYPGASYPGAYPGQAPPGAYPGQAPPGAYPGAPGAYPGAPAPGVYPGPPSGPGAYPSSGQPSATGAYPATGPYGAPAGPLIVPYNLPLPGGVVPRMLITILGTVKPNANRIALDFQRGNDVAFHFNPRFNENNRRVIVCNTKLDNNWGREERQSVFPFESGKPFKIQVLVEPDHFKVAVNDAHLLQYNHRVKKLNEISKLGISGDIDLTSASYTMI

Galectin-3 [11] = molecular target: T4, Galectin-3 (Mus musculus, UniProt P16110); assay: Binding affinity to mouse galectin-3 assessed as dissociation constant by fluorescein probe based fluorescence polarization assay
T4 sequence (P16110 whole entry): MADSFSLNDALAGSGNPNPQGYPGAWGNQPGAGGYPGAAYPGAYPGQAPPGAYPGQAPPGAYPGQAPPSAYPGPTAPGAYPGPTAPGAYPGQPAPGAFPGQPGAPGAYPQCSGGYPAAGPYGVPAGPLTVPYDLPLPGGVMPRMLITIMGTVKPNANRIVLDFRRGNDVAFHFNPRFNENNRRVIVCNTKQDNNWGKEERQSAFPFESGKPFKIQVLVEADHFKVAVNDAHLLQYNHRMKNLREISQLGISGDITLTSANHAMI

Galectin-4 [12] = molecular target: T5, Galectin-4 (Homo sapiens, UniProt P56470); assay: Inhibition of N-terminal human galectin-4 by competitive fluorescence polarization assay
T5 sequence (P56470 whole entry): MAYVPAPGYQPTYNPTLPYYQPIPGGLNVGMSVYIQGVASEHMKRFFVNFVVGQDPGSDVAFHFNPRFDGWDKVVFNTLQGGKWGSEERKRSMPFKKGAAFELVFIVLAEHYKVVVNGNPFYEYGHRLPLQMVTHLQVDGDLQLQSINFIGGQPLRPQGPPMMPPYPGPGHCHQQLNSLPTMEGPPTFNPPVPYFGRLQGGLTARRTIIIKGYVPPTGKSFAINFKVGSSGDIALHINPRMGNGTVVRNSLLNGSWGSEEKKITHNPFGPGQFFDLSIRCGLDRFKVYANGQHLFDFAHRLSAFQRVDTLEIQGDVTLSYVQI

Galectin-3 [13] = molecular target: T4, Galectin-3; assay: Binding affinity to CM3 chip-immobilized full-length mouse galectin-3 assessed as dissociation constant by SPR analysis
Lewis lung carcinoma [14] = assay: Antitumor activity against mouse LL2 cells allografted in syngeneic mouse C57BL/6N assessed as reduction in tumor volume at 30 mg/kg, po bid administered via gavage measured after 10 days; type: functional, organism-based; details: time 10.0 day
[15] = Cmax in C57BL/6 mouse at 30 mg/kg, po measured for 24 hrs by HPLC analysis; type: ADME, organism-based; details: in vivo
Galectin-8 [16] = molecular target: T6, Galectin-8 (Homo sapiens, UniProt O00214); assay: Inhibition of N-terminal human galectin-8 by competitive fluorescence polarization assay
T6 sequence (O00214 whole entry): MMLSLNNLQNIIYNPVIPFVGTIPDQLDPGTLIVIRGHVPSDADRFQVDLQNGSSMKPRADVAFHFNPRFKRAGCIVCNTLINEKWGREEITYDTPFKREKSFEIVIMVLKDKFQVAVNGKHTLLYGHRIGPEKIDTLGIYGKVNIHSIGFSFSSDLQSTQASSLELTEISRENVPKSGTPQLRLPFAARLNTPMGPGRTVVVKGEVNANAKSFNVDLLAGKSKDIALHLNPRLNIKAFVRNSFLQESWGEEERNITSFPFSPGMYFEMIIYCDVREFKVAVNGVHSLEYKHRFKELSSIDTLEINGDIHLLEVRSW

Galectin-8 [17] = molecular target: T6, Galectin-8; assay: Inhibition of C-terminal human galectin-8 by competitive fluorescence polarization assay
Galectin-3 [18] = molecular target: T3, Galectin-3; assay: Inhibition of human galectin-3 by competitive fluorescence polarization assay
[19] = Volume of distribution at steady state in C57BL/6 mouse at 1 mg/kg, iv measured for 24 hrs by HPLC analysis; type: ADME, organism-based; details: in vivo, read-out: Vdss
Jurkat [20] = assay: Inhibition of apoptosis in galectin-3-induced human Jurkat cells measured after 16 hrs by caspase-3/7 green fluorescence based analysis
[21] = Clearance in C57BL/6 mouse at 1 mg/kg, iv measured for 24 hrs by HPLC analysis; type: ADME, organism-based; details: in vivo
Jurkat [22] = assay: Inhibition of apoptosis in galectin-1-induced human Jurkat cells measured after 16 hrs by caspase-3/7 green fluorescence based analysis
[23] = Tmax in C57BL/6 mouse at 30 mg/kg, po measured for 24 hrs by HPLC analysis; type: ADME, organism-based; details: in vivo
A549 = assay: Cytotoxicity against human A549 cells assessed as reduction in cell viability at >90 uM by MTT assay relative to control; type: functional
Galectin-9 [24] = molecular target: T7, Galectin-9 (Homo sapiens, UniProt O00182); assay: Inhibition of N-terminal human galectin-9 by competitive fluorescence polarization assay
T7 sequence (O00182 whole entry): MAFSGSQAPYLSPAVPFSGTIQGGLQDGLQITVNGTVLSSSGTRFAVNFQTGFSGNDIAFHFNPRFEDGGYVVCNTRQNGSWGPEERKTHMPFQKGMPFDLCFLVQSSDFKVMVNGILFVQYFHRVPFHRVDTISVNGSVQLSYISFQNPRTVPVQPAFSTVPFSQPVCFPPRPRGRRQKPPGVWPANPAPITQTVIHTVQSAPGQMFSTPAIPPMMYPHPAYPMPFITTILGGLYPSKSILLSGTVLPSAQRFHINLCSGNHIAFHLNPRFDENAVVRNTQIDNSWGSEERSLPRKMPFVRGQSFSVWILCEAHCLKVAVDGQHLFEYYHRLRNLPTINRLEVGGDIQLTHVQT

[25] = Unbound fraction in mouse plasma at 1 uM incubated for 5 hrs by equilibrium dialysis method; type: ADME, cell-free
[26] = Oral bioavailability in C57BL/6 mouse at 30 mg/kg measured for 24 hrs by HPLC analysis; type: ADME, organism-based; details: in vivo
Galectin-4 [27] = molecular target: T5, Galectin-4; assay: Inhibition of C-terminal human galectin-4 by competitive fluorescence polarization assay
[28] = AUC (infinity) in C57BL/6 mouse at 30 mg/kg, po measured for 24 hrs by HPLC analysis; type: ADME, organism-based; details: in vivo
Galectin-7 = Galectin-7 (Homo sapiens, UniProt P47929); assay: Inhibition of human galectin-7 by competitive fluorescence polarization assay
Chain of Galectin-7 (P47929 whole entry): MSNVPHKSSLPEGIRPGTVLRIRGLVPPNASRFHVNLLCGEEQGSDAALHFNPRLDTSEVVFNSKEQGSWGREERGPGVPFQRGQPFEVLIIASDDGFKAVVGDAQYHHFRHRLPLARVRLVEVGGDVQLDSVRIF

Galectin-1 [29] = molecular target: T1, Galectin-1; assay: Binding affinity to CM3 chip-immobilized full-length human galectin-1 assessed as dissociation constant by SPR analysis
Lewis lung carcinoma [30] = assay: Antitumor activity against mouse LL2 cells allografted in syngeneic mouse C57BL/6N assessed as inhibition of tumor growth at 30 mg/kg, po bid administered via gavage measured for 3 to 21 days; type: functional, organism-based; details: time 3-21 day
Galectin-9 [31] = molecular target: T7, Galectin-9; assay: Inhibition of C-terminal human galectin-9 by competitive fluorescence polarization assay
Galectin-1 [32] = molecular target: T2, Galectin-1; assay: Binding affinity to mouse galectin-1 assessed as dissociation constant by competitive fluorescence polarization assay
Galectin-1 [33] = molecular target: T1, Galectin-1; assay: Binding affinity to human galectin-1 assessed as dissociation constant by fluorescence polarization assay
Galectin-3 [34] = molecular target: T3, Galectin-3; assay: Binding affinity to human galectin-3 assessed as dissociation constant by competitive fluorescence polarization assay
Galectin-1 [35] = molecular target: T1, Galectin-1; assay: Binding affinity to human galectin-1 assessed as dissociation constant by competitive fluorescence polarization assay
Galectin-3 [36] = molecular target: T4, Galectin-3; assay: Binding affinity to mouse galectin-3 assessed as dissociation constant by competitive fluorescence polarization assay

efflux ratio at 1.5 h, 10 µM [1]: 3.4
Papp A→B at 1.5 h, 10 µM [2]: 8.8 ×10⁻⁶ cm/s
Compound: OC[C@H]1O[C@H](Sc2cc(Cl)c(F)c(Cl)c2)[C@H](O)[C@@H](n2cc(-c3cscn3)nn2)[C@H]1O

hepatocyte CLint at 2 µM [5]: < 1.5 µL/min/1e6 cells
Papp B→A at 1.5 h, 10 µM [3]: 38 ×10⁻⁶ cm/s
logD at 1 h (physchem): 2.9
efflux ratio at 1.5 h, 10 µM [1]: 10
hepatocyte CLint at 2 µM [6]: < 1.5 µL/min/1e6 cells
Papp A→B at 1.5 h, 10 µM [2]: 3.8 ×10⁻⁶ cm/s
Kd (Galectin-1 [7]): 99 nM
fraction unbound at 5 h, 1 µM [8]: 0.032
Kd (Galectin-1 [4]): 112 nM
Compound: CO[C@@H]1[C@@H](n2cc(-c3csc(N)n3)nn2)[C@@H](O)[C@@H](CO)O[C@@H]1Sc1ccc(Cl)c(Cl)c1

Kd (Galectin-3 [34]): 1 nM
Kd (Galectin-1 [35]): 4 nM
Kd (Galectin-3 [36]): 34 nM
Compound: OC[C@H]1O[C@@H](S[C@@H]2O[C@H](CO)[C@H](O)[C@H](n3cc(-c4csc(O)n4)nn3)[C@H]2O)[C@H](O)[C@@H](n2cc(-c3cc(F)c(F)c(F)c3)nn2)[C@H]1O

Further lines, the compound ahead of its results:

Compound: OC[C@H]1O[C@H](Sc2cc(Cl)c(F)c(Cl)c2)[C@H](O)[C@@H](n2cc(-c3nccs3)nn2)[C@H]1O
efflux ratio at 1.5 h, 10 µM [1]: 2.8

Compound: CN(C)c1nc(-c2cn([C@@H]3[C@@H](O)[C@@H](Sc4cc(Cl)c(F)c(Cl)c4)O[C@H](CO)[C@@H]3O)nn2)cs1
Papp B→A at 1.5 h, 10 µM [3]: 52 ×10⁻⁶ cm/s
logD at 1 h (physchem): 3.8
efflux ratio at 1.5 h, 10 µM [1]: 87
Papp A→B at 1.5 h, 10 µM [2]: 0.6 ×10⁻⁶ cm/s
Kd (Galectin-1 [4]): 3430 nM

Compound: Nc1csc(-c2cn([C@@H]3[C@@H](O)[C@@H](Sc4cc(Cl)c(F)c(Cl)c4)O[C@H](CO)[C@@H]3O)nn2)n1
Papp B→A at 1.5 h, 10 µM [3]: 42 ×10⁻⁶ cm/s
logD at 1 h (physchem): 2.5
efflux ratio at 1.5 h, 10 µM [1]: 14
Papp A→B at 1.5 h, 10 µM [2]: 3.1 ×10⁻⁶ cm/s
Kd (Galectin-1 [4]): 620 nM

Compound: CO[C@@H]1[C@@H](n2cc(-c3csc(O)n3)nn2)[C@@H](O)[C@@H](CO)O[C@@H]1Sc1ccc(Cl)c(Cl)c1
Kd (Galectin-1 [9]): 90 nM
Kd (Galectin-3 [10]): 20500 nM
Kd (Galectin-3 [11]): 4200 nM
Kd (Galectin-4 [12]): 15000 nM
hepatocyte CLint at 2 µM [5]: < 1.5 µL/min/1e6 cells
Papp B→A at 1.5 h, 10 µM [3]: 48 ×10⁻⁶ cm/s
Kd (Galectin-3 [13]): 8200 nM
logD at 1 h (physchem): 3.2
Activity (Lewis lung carcinoma [14]): Active
Cmax [15]: 19500 ng/mL
Kd (Galectin-8 [16]): 80600 nM
Kd (Galectin-8 [17]): 92400 nM
Kd (Galectin-3 [18]): 6000 nM
Vd [19]: 0.4 L/kg
hepatocyte CLint at 2 µM [6]: < 1.5 µL/min/1e6 cells
IC50 (Jurkat [20]): > 8000 nM
clearance [21]: 3.7 mL/min/kg
IC50 (Jurkat [22]): 850 nM
Papp A→B at 1.5 h, 10 µM [2]: 4 ×10⁻⁶ cm/s
Tmax [23]: 2 h
Kd (Galectin-1 [7]): 72 nM
Activity (A549): 48%
Kd (Galectin-9 [24]): 18600 nM
fraction unbound at 5 h, 1 µM [25]: 0.007
bioavailability [26]: > 99.9%
Kd (Galectin-4 [27]): 460 nM
AUC(0-inf) [28]: 148 µg·h/mL
Kd (Galectin-7): 92700 nM
Kd (Galectin-1 [29]): 80 nM
fraction unbound at 5 h, 1 µM [8]: 0.005
inhibition (Lewis lung carcinoma [30]): Active
Kd (Galectin-9 [31]): 17500 nM

Compound: O=C(N[C@H]1[C@@H](O)[C@@H](CO)O[C@@H](S[C@@H]2O[C@H](CO)[C@H](O)[C@H](n3cc(-c4csc(O)n4)nn3)[C@H]2O)[C@@H]1O)c1ccc2c(c1)C(=O)OC21c2ccc(O)cc2Oc2cc(O)ccc21
Kd (Galectin-1 [32]): 29 nM
Kd (Galectin-1 [33]): 20 nM
